System: late differentiated cultured human keratinocytes (LDKs)
Assay: Ceramide growth test in cultured human keratinocytes (LC-ESI-MS/MS quantification of ceramide species)
Assay type: cell-based
Description: Experiments were conducted using undifferentiated and late differentiated cultured human keratinocytes (KCs). Human keratinocytes were cultured in a serum-free KC growth medium containing 0.07 mM calcium, and collected to be undifferentiated cells when KCs occupied up to about 60% to 70% of the total area of the culture petri dish (about 60% to 70% confluence). KCs were cultured in a serum-free KC growth medium containing 0.07 mM of calcium, and the medium was replaced with DMEM containing 10% fetal bovine serum containing 1.2 mM of calcium, 10 μg/mL insulin, 0.4 μg/mL hydrocortisone, and 50 μg/mL of vitamin C and Ham's F-12 (2:1, v/v) when KCs occupied up to about 70% to 80% of the total area of the culture petri dish (about 70% to 80% confluence), followed by culturing for 8 days. Next, cells cultured for 3 days in a DMEM medium containing 10% fetal bovine serum containing 1.2 mM of calcium, 10 μg/mL insulin, 0.4 μg/mL hydrocortisone, and 50 μg/mL of vitamin C were used as late differentiated cultured human keratinocytes (LDKs).
From the second day of culture to the fourth, sixth, eighth, ninth, and tenth days, the ceramide preparation (I % ceramide NDS solution) prepared in Example 1 was diluted with a medium, filtered with a filter paper having a pore size of 0.45 μm, and 15.9 μL, 79.6 μL, and 397.7 μL (=10 μM, 50 μM, 250 μM) thereof were added, separately. In addition, 79.6 μL of a Blk solution not containing ceramide prepared in Comparative Example 1 was added, followed by culturing.
100 μg of each of the culture solutions prepared above and 100 μmol of an internal standard substance mixture (C17 (carbon number 17)-ceramide NS=N-octadecanoylamino-C17 sphingosine, C17-sphingosine, C17-dihydrosphingosine) were added to a mixed solution of a 0.1 N HCl aqueous solution: chloroform: methanol (volume ratio 1:2:1) and stirred, and then the organic phase of the lower layer was dried in vacuo, and the extraction drying operation was repeated twice. The obtained residue was dissolved in 200 μl of a methanol/acetonitrile equivalent mixture, and analyzed by the following liquid chromatography tandem mass spectrometry (LC-ESI-MS/MS) system (API 3200 QTRAP mass, ABCIEX). […]
10 μL of the extracted sample was analyzed by HPLC (HTS HPLC system manufactured by Shiseido Co., Ltd.) with a reverse phase KINTEX C18 column (2.1×50 mm, ID=2.6 μm). The column was previously equilibrated with a solvent A (MeOH: 0.05% formic acid aqueous solution: 80:20), the lipid was dissolved in a solvent B(2-propanol:0.05% formic acid methanol solution: 99:1), and a mass spectrum was detected in a positive mode by electrospray ionization with a gradient applied at a flow rate of 0.3 ml/min. […]

`CCCCCCCCCCCCCCCCCC(=O)N[C@@H](CO)[C@H](O)CCCCCCCCCCCCCCC` [ceramide NDS, (2S,3R)-2-octadecanoylaminooctadecane-1,3-diol] was tested, and the “ceramide NSs (acyl chain length 14 to 26) amount” value (Example 1 preparation added at 10 μM, 50 μM, 250 μM, 10 days culture, p<0.01 vs LDK without ceramide NDS, FIG. 4) was “significantly increased”, the “ceramide NDSs (different acyl chain lengths of 14 to 26) amount” value (Example 1 preparation added at 10 μM, 50 μM, 250 μM, 10 days culture, p<0.01 vs LDK without ceramide NDS, FIG. 5) was “significantly increased” and the “ceramide EOSs (ω-hydroxy acid amide bond of 30 and 32 carbon atoms, esterified with linoleic acid at ω-position) amount” value (Example 1 preparation added at 10 μM, 50 μM, 250 μM, 10 days culture, p<0.01 vs LDKs without ceramide NDS, FIG. 3) was “significantly increased”. For the same compound, the “growth of various ceramide species” value (ceramide preparation added to keratinocyte culture) was “are grown”.

— patent US20240197610A1, “CERAMIDE GROWTH PROMOTING AGENT” (TAKASAGO INTERNATIONAL CORPORATION, priority 2020, published 2024)
